Laboratory results from publication PMC6906261 (The journal of pain : official journal of the American Pain …, 2019).
Structures can show the parent of a compound that is named as a salt.

Tests used:
CD-1 mice [1] = details: mouse, in vivo
CD-1 mice [2] = details: mouse, in vivo; remark: listed apart in the source
CD-1 mice [3] = details: general literature value; cited from earlier work
TNFα mRNA = details: mouse, in vivo
CD-1 mice [4] = details: mouse, in vivo; remark: listed apart in the source
CD-1 mice [5] = details: mouse, in vivo; remark: listed apart in the source
CD-1 mice [6] = details: mouse, in vivo; remark: listed apart in the source

## CN1CC[C@]23c4c5ccc(O)c4O[C@H]2[C@@H](O)C=C[C@H]3[C@H]1C5 [Morphine, Morphine sulfate pentahydrate]
CD-1 mice [1]
  Tolerance – Days to Zero Efficacy, CIPN, 10 mg/kg: 2.2 (1.9-3.3) days
CD-1 mice [2]
  Rotarod motor impairment (latency to fall): no impairment
CD-1 mice [3]
  Tail flick A50 from the literature: around 3.2 mg/kg
TNFα mRNA
  TNFα mRNA level in spinal cord in CIPN: did not alter
CD-1 mice [4]
  Anti-nociceptive efficacy on day 3, HIV Neuropathy: zero efficacy
  Tolerance – Days to Zero Efficacy, HIV Neuropathy, 10 mg/kg: 3.0 (2.7-3.6) days
CD-1 mice [5]
  Withdrawal GI output, CIPN mice: robust jumping and GI output response
  Withdrawal GI output, pain-naïve mice: robust jumping and GI output behavior
  Withdrawal jumping behavior, CIPN mice: robust jumping and GI output response
  Withdrawal jumping behavior, pain-naïve mice: robust jumping and GI output behavior

## C=CCN1CC[C@]23c4c5ccc(O)c4O[C@H]2C(=O)CC[C@@]3(O)[C@H]1C5 [Naloxone]
CD-1 mice [6]
  Decrease of tail flick AUC vs vehicle group, naloxone it: 4.6%
  Effect of antagonist on SRI-22141 tail flick anti-nociception, naloxone icv: strongly reduced
  Effect of antagonist on SRI-22141 tail flick anti-nociception, naloxone ip: completely prevented

## Oc1ccc2c3c1O[C@H]1c4[nH]c5ccccc5c4C[C@@]4(O)[C@@H](C2)N(CC2CC2)CC[C@]314 [Naltrindole]
CD-1 mice [6]
  Effect of antagonist on SRI-22141 tail flick anti-nociception, naltrindole ip: no impact
CD-1 mice [1]
  Effect of antagonist on SRI-22141 anti-nociception in CIPN: strongly reduced
TNFα mRNA
  Effect of antagonist on TNFα mRNA decrease caused by SRI-22141: reversed the decrease in TNFα caused by SRI-22141 back to baseline
